Assay results from ChEMBL document CHEMBL4330122, “Modified ribavirin analogues as antiviral agents against Junín virus” (Bioorg Med Chem Lett, 2019).
pEC50: −log10 of the molar value.

Key:
[1] = test system: Junin virus; format: functional, organism-based; details: Mammarenavirus juninense, IV4454, Vero, 48 h
[2] = Cytotoxicity against African green monkey Vero cells assessed as reduction in cell viability after 48 hrs by MTT assay; format: cell-based; details: chlorocebus sabaeus
[3] = Cytotoxicity against human A549 cells assessed as reduction in cell viability after 48 hrs by MTT assay; format: cell-based
[4] = test system: Junin virus; format: functional, organism-based; details: Mammarenavirus juninense, IV4454, A549, 48 h
[5] = Solubility of the compound in water; format: physicochemical
[6] = in vitro; details: monkey, Vero cells
[7] = in vitro; details: human, A549 cells

| SMILES | pEC50 [1] | CC50 at 48 h [2] | CC50 at 48 h [3] | pEC50 [4] | solubility [5] | selectivity ratio [6] | selectivity ratio [7] |
| --- | --- | --- | --- | --- | --- | --- | --- |
| OC[C@H]1O[C@@H](n2cc(COCC(COCc3cn([C@@H]4O[C@H](CO)[C@@H](O)[C@H]4O)nn3)(COCc3cn([C@@H]4O[C@H](CO)[C@@H](O)[C@H]4O)nn3)COCc3cn([C@@H]4O[C@H](CO)[C@@H](O)[C@H]4O)nn3)nn2)[C@H](O)[C@@H]1O | < 3.30 | > 1000 µM | > 1000 µM | < 3.30 |  |  |  |
| CCCCn1cc(COC[C@@H](O)[C@H](O)[C@H](O)[C@@H](O)CO)nn1 | < 3.30 | > 1000 µM | > 1000 µM | < 3.30 | > 100 mg/mL |  |  |
| CCCCn1cc(CO[C@@H]2O[C@H](Cn3cc(COC[C@H]4OC(O)[C@H](O)[C@@H](O)[C@H]4O)nn3)[C@H]3OC(C)(C)O[C@@H]23)nn1 (stereo partly drawn) | 4.66 | > 1000 µM | > 1000 µM | 4.69 | > 100 mg/mL | > 45.2 | > 48.5 |
| CC1(C)O[C@H]2[C@H](OCc3cn(CC(Cn4cc(CO[C@@H]5O[C@H](Cn6cc(COC[C@H]7OC(O)[C@H](O)[C@@H](O)[C@H]7O)nn6)[C@H]6OC(C)(C)O[C@@H]56)nn4)(Cn4cc(CO[C@@H]5O[C@H](Cn6cc(COC[C@H]7OC(O)[C@H](O)[C@@H](O)[C@H]7O)nn6)[C@H]6OC(C)(C)O[C@@H]56)nn4)Cn4cc(CO[C@@H]5O[C@H](Cn6cc(COC[C@H]7OC(O)[C@H](O)[C@@H](O)[C@H]7O)nn6)[C@H]6OC(C)(C)O[C@@H]56)nn4)nn3)O[C@H](Cn3cc(COC[C@H]4OC(O)[C@H](O)[C@@H](O)[C@H]4O)nn3)[C@H]2O1 (stereo partly drawn) | < 3.30 | > 1000 µM | > 1000 µM | < 3.30 | > 100 mg/mL |  |  |
| OC[C@@H](O)[C@H](O)[C@H](O)[C@@H](O)COCc1cn(CC(Cn2cc(COC[C@@H](O)[C@H](O)[C@H](O)[C@@H](O)CO)nn2)(Cn2cc(COC[C@@H](O)[C@H](O)[C@H](O)[C@@H](O)CO)nn2)Cn2cc(COC[C@@H](O)[C@H](O)[C@H](O)[C@@H](O)CO)nn2)nn1 | < 3.30 | > 1000 µM | > 1000 µM | < 3.30 | > 100 mg/mL |  |  |
| CCCCn1cc(CO[C@@H]2O[C@H](CO)[C@H]3OC(C)(C)O[C@@H]23)nn1 | 4.24 | > 1000 µM | > 1000 µM | 4.25 |  | > 17.5 | > 17.9 |
| CC1(C)O[C@@H]2[C@H](O1)[C@@H](Cn1cc(COC[C@H]3OC(O)[C@H](O)[C@@H](O)[C@H]3O)nn1)O[C@H]2n1cc(COCC(COCc2cn([C@@H]3O[C@H](Cn4cc(COC[C@H]5OC(O)[C@H](O)[C@@H](O)[C@H]5O)nn4)[C@H]4OC(C)(C)O[C@H]43)nn2)(COCc2cn([C@@H]3O[C@H](Cn4cc(COC[C@H]5OC(O)[C@H](O)[C@@H](O)[C@H]5O)nn4)[C@H]4OC(C)(C)O[C@H]43)nn2)COCc2cn([C@@H]3O[C@H](Cn4cc(COC[C@H]5OC(O)[C@H](O)[C@@H](O)[C@H]5O)nn4)[C@H]4OC(C)(C)O[C@H]43)nn2)nn1 (stereo partly drawn) | 3.93 | > 1000 µM | > 1000 µM | 3.92 | > 100 mg/mL | > 8.6 | > 8.4 |
| CC(=O)OC[C@H]1O[C@@H](n2cc(COCC(COCc3cn([C@@H]4O[C@H](COC(C)=O)[C@@H](OC(C)=O)[C@H]4OC(C)=O)nn3)(COCc3cn([C@@H]4O[C@H](COC(C)=O)[C@@H](OC(C)=O)[C@H]4OC(C)=O)nn3)COCc3cn([C@@H]4O[C@H](COC(C)=O)[C@@H](OC(C)=O)[C@H]4OC(C)=O)nn3)nn2)[C@H](OC(C)=O)[C@@H]1OC(C)=O | < 3.30 | > 1000 µM | > 1000 µM | < 3.30 |  |  |  |
| OCc1cn([C@@H]2O[C@H](CO)[C@@H](O)[C@H]2O)nn1 | 3.67 | > 1000 µM | > 1000 µM | 4.29 |  | > 4.7 | > 19.7 |
| CCCCn1cc(CO[C@@H]2O[C@H](Cn3cc(COC[C@@H](O)[C@H](O)[C@H](O)[C@@H](O)CO)nn3)[C@H]3OC(C)(C)O[C@@H]23)nn1 | 3.68 | > 1000 µM | > 1000 µM | 3.41 | > 100 mg/mL | > 4.8 | > 2.6 |
| OC1O[C@H](COCc2cn(CC(Cn3cc(COC[C@H]4OC(O)[C@H](O)[C@@H](O)[C@H]4O)nn3)(Cn3cc(COC[C@H]4OC(O)[C@H](O)[C@@H](O)[C@H]4O)nn3)Cn3cc(COC[C@H]4OC(O)[C@H](O)[C@@H](O)[C@H]4O)nn3)nn2)[C@H](O)[C@H](O)[C@H]1O (stereo partly drawn) | 3.43 | > 1000 µM | > 1000 µM | 3.50 | > 100 mg/mL | > 2.7 | > 3.2 |
| CC1(C)O[C@H]2[C@H](OCc3cn(CC(Cn4cc(CO[C@@H]5O[C@H](CO)[C@H]6OC(C)(C)O[C@@H]56)nn4)(Cn4cc(CO[C@@H]5O[C@H](CO)[C@H]6OC(C)(C)O[C@@H]56)nn4)Cn4cc(CO[C@@H]5O[C@H](CO)[C@H]6OC(C)(C)O[C@@H]56)nn4)nn3)O[C@H](CO)[C@H]2O1 | 4.45 | 233 µM | 209 µM | 4.48 |  | 6.5 | 6.2 |
| CC1(C)O[C@H]2[C@H](OCc3cn(CC(Cn4cc(CO[C@@H]5O[C@H](CN=[N+]=[N-])[C@H]6OC(C)(C)O[C@@H]56)nn4)(Cn4cc(CO[C@@H]5O[C@H](CN=[N+]=[N-])[C@H]6OC(C)(C)O[C@@H]56)nn4)Cn4cc(CO[C@@H]5O[C@H](CN=[N+]=[N-])[C@H]6OC(C)(C)O[C@@H]56)nn4)nn3)O[C@H](CN=[N+]=[N-])[C@H]2O1 (stereo partly drawn) | < 3.30 | > 1000 µM | > 1000 µM | < 3.30 |  |  |  |
| CCCCn1cc(CO[C@@H]2O[C@H](CN=[N+]=[N-])[C@H]3OC(C)(C)O[C@@H]23)nn1 | 4.88 | 762 µM | 525 µM | 4.87 |  | 57.9 | 38.5 |
| CCCCn1cc(COC[C@H]2OC(O)[C@H](O)[C@@H](O)[C@H]2O)nn1 (stereo partly drawn) | 3.43 | > 1000 µM | > 1000 µM | 3.95 | > 100 mg/mL | > 2.7 | > 8.9 |
| CC1(C)O[C@H]2[C@H](OCc3cn(CC(Cn4cc(CO[C@@H]5O[C@H](Cn6cc(COC[C@@H](O)[C@H](O)[C@H](O)[C@@H](O)CO)nn6)[C@H]6OC(C)(C)O[C@@H]56)nn4)(Cn4cc(CO[C@@H]5O[C@H](Cn6cc(COC[C@H](O)[C@@H](O)[C@@H](O)[C@H](O)CO)nn6)[C@H]6OC(C)(C)O[C@@H]56)nn4)Cn4cc(CO[C@@H]5O[C@H](Cn6cc(COC[C@H](O)[C@@H](O)[C@@H](O)[C@H](O)CO)nn6)[C@H]6OC(C)(C)O[C@@H]56)nn4)nn3)O[C@H](Cn3cc(COC[C@@H](O)[C@H](O)[C@H](O)[C@@H](O)CO)nn3)[C@H]2O1 | < 3.30 | > 1000 µM | > 1000 µM | 3.50 | > 100 mg/mL |  | > 3.2 |
| CC(=O)OC[C@H]1O[C@@H](n2cc(CO)nn2)[C@H](OC(C)=O)[C@@H]1OC(C)=O | 3.89 | > 1000 µM | > 1000 µM | 3.49 |  | > 7.7 | > 3.1 |
| CC1(C)O[C@@H]2[C@H](O1)[C@@H](CO)O[C@H]2n1cc(COCC(COCc2cn([C@@H]3O[C@H](CO)[C@H]4OC(C)(C)O[C@H]43)nn2)(COCc2cn([C@@H]3O[C@H](CO)[C@H]4OC(C)(C)O[C@H]43)nn2)COCc2cn([C@@H]3O[C@H](CO)[C@H]4OC(C)(C)O[C@H]43)nn2)nn1 | < 3.30 | > 1000 µM | > 1000 µM | < 3.30 |  |  |  |
| CC1(C)O[C@@H]2[C@H](O1)[C@@H](Cn1cc(COC[C@@H](O)[C@H](O)[C@H](O)[C@@H](O)CO)nn1)O[C@H]2n1cc(COCC(COCc2cn([C@@H]3O[C@H](Cn4cc(COC[C@@H](O)[C@H](O)[C@H](O)[C@@H](O)CO)nn4)[C@H]4OC(C)(C)O[C@H]43)nn2)(COCc2cn([C@@H]3O[C@H](Cn4cc(COC[C@H](O)[C@@H](O)[C@@H](O)[C@H](O)CO)nn4)[C@H]4OC(C)(C)O[C@H]43)nn2)COCc2cn([C@@H]3O[C@H](Cn4cc(COC[C@H](O)[C@@H](O)[C@@H](O)[C@H](O)CO)nn4)[C@H]4OC(C)(C)O[C@H]43)nn2)nn1 | < 3.30 | > 1000 µM | > 1000 µM | < 3.30 | > 100 mg/mL |  |  |
| NC(=O)c1ncn([C@@H]2O[C@H](CO)[C@@H](O)[C@H]2O)n1 [RIBAVIRIN] |  | > 400 µM | 307 µM | 4.72 |  | > 21.6 | 15.9 |
| CC1(C)O[C@@H]2[C@H](O1)[C@@H](CO)O[C@H]2n1cc(CO)nn1 | 4.29 | > 1000 µM | > 1000 µM | 4.06 |  | > 19.5 | > 11.6 |
